Data set [1] relates to S. aureus strain NCTC 8325. The data set can be described thus: liquid culture-based hemolysis assay (secreted hemolysins, sheep red blood cells). The class given is cell-based. The procedure: The inhibition of hemolysin production has thus been further analysed in liquid bacterial cultures in order to evaluate their potential effects on bacterial growth simultaneously. Besides AVU1Acid, AVU1AAc, AVU1AA and VK273 the following further compounds were tested in liquid bacterial cultures:
(§1) 1 ml of an appropriate bacterial broth for the standard laboratory S. aureus strain NCTC 8325 were inoculated with 1*10^6 cfu. The cultures were kept overnight at 37° C. with gentle shaking 300 rpm in the presence of compounds AVU1Acid, AVU1AAc, AVU1AA or VK273 according to the present invention at different concentrations or dimethyl sulfoxide (DMSO) as control. Different beta-lactone virulence inhibitors were used as reference compounds. Following overnight incubation the optical density was measured in order to determine the minimal inhibiting concentration (MIC), which is defined as the lowest concentration of an antimicrobial that will inhibit the visible growth of a microorganism after overnight incubation. A 100 μl fraction of the supernatant of the grown bacterial cultures was subsequently analysed for the content of secreted bacterial hemolysins by addition of sheep red blood cells (10% v/v in PBS) and the measurement of the optical density at 410 nm after 30 min incubation at 37° C.
The following results were obtained in further liquid culture-based hemolysis assays. Since the assays were performed at different times with different charges of sheep red blood cells AVU1 has been tested as a reference substance in each assay. The resulting EC50 values determined for the tested compounds have to be assessed with respect to the EC50 value determined for AVU1.

Data set [2] can be described thus: stability in mouse plasma. Conditions: 100 μM, 37° C., 0-240 min; FIG. 8, FIG. 10. The class given is in vitro ADME. Here is the method:
(§2) We investigated the stability of the compound herein in plasma preparations in comparison the beta-lactone compounds. Human plasma was obtained lyophilized from Sigma and reconstituted in sterile H2O. For human plasma 3.8% trisodium citrate was used as anticoagulant. Mouse plasma was prepared from whole blood samples from SKH-1 and Balb/C mice using Lithium-Heparin as anticoagulant and pooled from at least three different donor animals. Plasma samples were sterile filtered and stored in aliquots at −20° C. […] Test compounds were diluted 1:100 from a DMSO stock solution to a final concentration of 100 μM in both human and mouse plasma prewarmed for 10 min in an orbital shaker to 37° C. Test compounds were further incubated at 37° C. in the orbital shaker. Samples were withdrawn at time points 0, 5, 10, 20, 30, 60, 120, 240 min and immediately quenched by the addition of an equal volume of ice-cold acetonitrile. Subsequently, all samples were spun at maximum speed in a microcentrifuge to pellet precipitated proteins and samples were prepared for LC-MS analysis. Compound quantification occurred through analysis via the LTQ-FT high resolution mass-spectrometer and XCalibur-Software purchased at Thermo Scientific, Dreieich, D-63303 Germany.

Data set [3] concerns S. aureus strain NCTC 8325. As to the kind of experiment: minimal inhibiting concentration (MIC) in liquid bacterial culture. Conditions: overnight 37° C., read-out: MIC. The data set is classed as cell-based. The procedure: as §1
A short description of data set [4]: stability in human plasma. The data set is classed as in vitro ADME. Conditions: SKH-1 and Balb/C (mouse plasma); positive control at 100 μM in every experiment (human and mouse plasma), 37° C. The procedure: as §2
The target in another data set is T1, CIpP (Staphylococcus aureus, UniProt Q2G036).
T1 construct: Living S. aureus NCTC8325 cells from a fresh stationary liquid culture were aliquoted; endogenous in cells; host or cells: living S. aureus NCTC8325 cells
T1 sequence (Q2G036 1-195): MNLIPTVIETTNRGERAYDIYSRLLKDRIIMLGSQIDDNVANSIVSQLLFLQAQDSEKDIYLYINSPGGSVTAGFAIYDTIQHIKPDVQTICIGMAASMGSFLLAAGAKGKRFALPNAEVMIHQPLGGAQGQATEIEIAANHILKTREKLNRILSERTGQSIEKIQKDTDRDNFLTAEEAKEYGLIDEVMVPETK
The data set can be described thus: competitive ABPP proteome labeling of living S. aureus cells with U1P probe. The note with it: FIG. 4. The class given is binding. From the text: The compound U1P was used as a probe for activity-based labeling (activity-based protein profiling, ABPP) of the S. aureus NCTC 8325 proteome, as described in WO 2009/106211.
The U1P ABPP probe represents the lead structures of the known beta-lactone CIpP inhibitors modified with a terminal alkyne group. This compound is both active in hemolysis inhibition and CIpP inhibition. The terminal alkyne group comprised in UIP can be used for appending a fluorophore such as rhodamine-azide using click chemistry (1,3-dipolar Huisgen cycloaddition), which allows to scan the proteome of S. aureus for possible covalent binding partners. This compound consistently labels CIpP protease in a covalent manner in S. aureus proteomes.
The inventors used this compound in order to investigate whether compounds according to the present invention are able to reduce or suppress by non-covalent binding the covalent binding of the U1P ABPP probe to proteins of the S. aureus proteome. For a detailed description of the technique underlying these experiments see T. Böttcher, M. Pitscheider S. A. Sieber, Angew Chem Int Ed Engl. 2010, 2680.
Living S. aureus NCTC8325 cells from a fresh stationary liquid culture were aliquoted to equivalents of 1 ml of OD600=2. Bacterial cells were washed and resuspended in 100 μl PBS. Bacterial cell aliquots were then pre-incubated with the compounds AVU1AA or VK273 of the invention for 1 h at RT at final concentrations of 5 or 10 mM. Subsequently, the covalent ABPP probe UIP was added to a final concentration of 100 μM for 30 min at RT. After the competitive labeling procedure bacterial cells were washed twice, disrupted and labeled with rhodamine-azide using click chemistry. The labeled S. aureus proteome samples were separated by SDS-PAGE and visualized using fluorescence scanning.

Data set [5] addresses T2, CIpP protease from S. aureus NCTC8325 (SaCIpP) (Staphylococcus aureus, UniProt Q2G036).
T2 construct: made in house; host or cells: E. coli
T2 sequence (Q2G036 1-195): T1 sequence (Q2G036 1-195)
The data set can be described thus: in vitro inhibition of recombinant S. aureus CIpP with SLY-AMC substrate. The class given is biochemical. The note with it: inhibitor 2 mM (1000×), 30 min RT; SLY-AMC 200 μM; FIG. 3. Here is the method:
The CIpP protease from S. aureus NCTC8325 (SaCIpP) was recombinantly overexpressed in E. coli and purified in order to investigate enzyme inhibition using SLY-AMC (N-succinyl-Leu-Tyr-7-amido-4-methylcoumarin) as fluorogenic model substrate.
Precisely, 9 μl of SaCIpP in buffered solution (final concentration 0.05 mg/ml, 2 μM; buffer: 100 mM NaCl, 20 mM Tris, pH 7.0) were incubated in the presence of 1 μl of various inhibitors (final concentration 2 mM=1000×) for 30 min at room temperature (RT). Subsequently, SLY-AMC was added to a final concentration of 200 μM and the increase in fluorescence due to enzymatic substrate proteolysis was measured using a TECAN GENios Pro™ plate reader at 380/440 nm (excitation/emission) at time intervals of 60 s over 40 min at 37° C. The enzymatic activity was determined as the slope of fluorescence (2=440 nm) over time. As positive controls, the in vivo active beta-lactone compound AVU1 (“U1”; WO 2009/106211) and the in vitro potent CIpP beta-lactone inhibitor D3 (WO 2009/106211) were employed.

Like-named read-outs stand apart in the source and are kept apart here. A value given as a limit tells only on which side of the number the result lay.

Consider `C=CCCCCCCC[C@H]1C(=O)O[C@@H]1CCc1ccccc1` [AVU1, reference compound], for which the EC50 (as a rule, the concentration giving half of the maximal effect) in data set [1] (Staphylococcus aureus, NCTC8325, Erythrocyte, Assay 1, hemolysin production) is 142 µM; in data set [1] (Staphylococcus aureus, NCTC8325, Erythrocyte, Assay 2, hemolysin production, assess relative to AVU1), 10 to 50 µM; in data set [1] (Staphylococcus aureus, NCTC8325, Erythrocyte, Assay 3, hemolysin production, assess relative to AVU1), 50 to 100 µM; in data set [1] (Staphylococcus aureus, NCTC8325, Erythrocyte, Assay 4, hemolysin production, assess relative to AVU1), 31 µM. In data set [2], the “stability in mouse plasma” value was “degraded within a few minutes”. Moreover, the MIC (usually the smallest concentration in the dilution series that meets the test's criterion for growth inhibition) in data set [3] (Assay 2) was >1000 µM; in data set [3] (Assay 3), >1000 µM; in data set [3] (Assay 4) it was >1000 µM; in data set [3] (Staphylococcus aureus, NCTC8325, Assay 1), > 1000 µM.
On to `CCN(CC)CCOC(=O)c1ccc(N)cc1` [Procaine], for which the half-life (usually how long it takes for the measured level to halve) at 100 μM in data set [4] was 6 to 9 min.
For the compound `C#CC[C@H]1C(=O)O[C@@H]1CCc1ccccc1` [U1P, reference compound], the “labeling signal of probe” value on CIpP (in the absence of competitive compounds) is reported as “strong labeling signal with CIpP as the main target”.
Compound `C=CCCCCCCCC(CO)C(O)CCc1ccccc1` (stereo not shown) [VK273, 2-(non-8-enyl)-5-phenylpentandiol-1,3] registered an EC50 in data set [1] (Assay 1, hemolysin production) of 24.8 µM. The “inhibition of SaCIpP” value in data set [5] is “inhibit SaCIpP at an at least comparable level as the in vivo active beta-lactone reference compound AVU1”. The MIC in data set [3] (Assay 1) is on record as >1000 µM. In addition, on CIpP (bacterial cells incubated with compound alone), the “labeling in the absence of U1P” value is recorded as “did not result in any unspecific labeling”. Also, the “target binding of U1P after pre-incubation with competitor” value on CIpP (pre-incubation 1 h at RT at 5 or 10 mM, U1P 100 μM 30 min) is reported as “significantly reduced target binding of U1P”.

The values above are taken from patent US20140323457A1, “BETA-O/S/N FATTY ACID BASED COMPOUNDS AS ANTIBACTERIAL AND ANTIPROTOZOAL AGENTS” (LUDWIG-MAXIMILIANS-UNIVERSITÄT MÜNCHEN, priority 2011, published 2014).
